Measured values published in publication PMC4956231, “Molecular Mechanisms for Drug Hypersensitivity Induced by the Malaria Parasite’s Chloroquine Resistance Transporter” (PLoS Pathogens, 2016).
Several values for one entry are separate records, joined by “and”; a condition that tells them apart may be missing. Equal values may be shown once.

Assays:
[1] = tested on: P. falciparum line K1AM; conditions: K1AM (163R,356V-PfCRT^K1); IC50 in line divided by IC50 in drug-sensitive reference strain; cited from earlier work
[2] = tested on: P. falciparum Dd2; conditions: Dd2 (PfCRT^Dd2); IC50 in line divided by IC50 in drug-sensitive reference strain; cited from earlier work
[3] = tested on: C6^7G8; experiment: P. falciparum drug susceptibility (parasite proliferation, SYBR Safe); format: cell-based; conditions: Plasmodium falciparum, Control, 72 h
Experimental: (§1) Parasite proliferation was measured in 96-well plates using a fluorescent DNA-intercalating dye and a protocol described in detail previously. Briefly, cell suspensions containing erythrocytes infected with ring-stage parasites (hematocrit and parasitemia of approximately 2% and 1%, respectively) were incubated at 37°C for 72 h. The samples were frozen, thawed, and then processed by the addition of 100 μL (per well) of SYBR Safe DNA Gel Stain (Molecular Probes; 0.2 μL/mL) in a lysis buffer (20 mM Tris, 5 mM EDTA, 0.008% w/v saponin, and 0.08% v/v Triton X-100; pH 7.5). The fluorescence emanating from each well was measured immediately using a Tecan Infinite M1000 PRO microplate reader (excitation 490 nm; emission 520 nm) and the average fluorescence from wells containing the highest concentration of the drug was subtracted from the resulting values. The level of parasite proliferation in the presence of each drug concentration was expressed as a percentage of the proliferation measured in the absence of the drug for which the IC50 was being determined. The IC50s were determined in SigmaPlot by a least-squares fit of the equation y = a/ [1 ([drug]/IC50)c] to the data, where y is the percent parasite proliferation, a is the maximum change in the percent parasite proliferation, and c is a fitted constant. In all cases, five independent experiments were performed (on different days), and within each experiment measurements were averaged from three replicates.

[4] = tested on: C2^GC03; experiment: as above; format: cell-based; conditions: Plasmodium falciparum, Control, 72 h
Experimental: as §1

[5] = tested on: C4^Dd2; experiment: as above; format: cell-based; conditions: Plasmodium falciparum, Control, 72 h
Experimental: as §1

[6] = tested on: 3D7; experiment: as above; format: cell-based; conditions: Plasmodium falciparum, Control, 72 h
Experimental: as §1

[7] = tested on: Dd2; experiment: as above; format: cell-based; conditions: Plasmodium falciparum, DD2, 72 h
Experimental: as §1

[8] = tested on: C4^Dd2 (PfCRT^Dd2); experiment: P. falciparum H+ efflux assay (DV alkalinization rate); format: cell-based, Plasmodium falciparum
Experimental: (§2) Saponin-isolated trophozoite-stage parasites containing the membrane-impermeant pH-sensitive fluorescent indicator fluorescein-dextran (10,000 MW; Life Technologies) in their DVs were prepared as outlined elsewhere. The isolated parasites were washed and suspended in a saline solution (125 mM NaCl, 5 mM KCl, 1 mM MgCl2, 20 mM glucose, 25 mM HEPES; pH 7.1) at a density of 1–3 × 10^7 cells/mL. The fluorometry experiments were performed as described previously. The pH of the DV was monitored at 37°C using a PerkinElmer Life Sciences LS50B fluorometer with a dual excitation Fast Filter accessory (excitation 490 and 450 nm; emission 520 nm). The experiments entailed monitoring the alkalinization of the DV upon addition of the V-type H^+-ATPase inhibitor concanamycin A (100 nM; Sigma-Aldrich), in the presence or absence of the drugs of interest. Half-times for DV alkalinization (t1/2) were calculated as outlined elsewhere. In all cases, five independent experiments were performed on different days.

[9] = tested on: C2^GC03 (PfCRT^3D7); experiment: as above; format: cell-based, Plasmodium falciparum
Experimental: as §2

[10] = tested on: C6^7G8 (PfCRT^7G8); experiment: as above; format: cell-based, Plasmodium falciparum
Experimental: as §2

[11] = tested on: P. falciparum line 106/1^72R,76I; conditions: 106/1^72R,76I (72R,76I-PfCRT^K1); IC50 in line divided by IC50 in drug-sensitive reference strain; cited from earlier work
[12] = target: 76I-PfCRT^K1 (Plasmodium falciparum, UniProt Q9N623, A220S/K76I/M74I/N326S/N75E/Q271E/R371I); format: cell-based
Experimental: (§3) For each treatment, 10 oocytes were transferred to a 5 mL polystyrene round bottom tube (Falcon) and washed twice with 3.5 mL of ND96 buffer, with the residual buffer removed by pipette. […] The assay was terminated by removing the reaction buffer with a pipette and washing the oocytes twice with 3.5 mL of ice-cold ND96 buffer. Each oocyte was transferred to a separate well of a white 96-well plate (NUNC or PerkinElmer), incubated overnight at room temperature in 30 μL of 10% SDS, and mixed on an orbital shaker the following day for approximately 5 min. The lysed oocyte was then combined with 150 μL of MicroScint-40 microscintillant (PerkinElmer), the plate covered with a TopSeal-A (PerkinElmer), and the radioactivity measured with a PerkinElmer MicroBeta^2 microplate liquid scintillation analyzer.

[13] = tested on: noninjected oocytes; experiment: [3H]drug uptake into noninjected oocytes (background accumulation); format: cell-based, Xenopus laevis; conditions: for rate of CQ uptake: [3H]CQ […]
Experimental: as §3

[14] = tested on: PfCRT^K1; experiment: [3H]drug transport into Xenopus oocytes expressing PfCRT; format: cell-based, Plasmodium falciparum
Experimental: as §3

[15] = tested on: PfCRT^Dd2; experiment: as above; format: cell-based, Plasmodium falciparum; conditions: PfCRT^Dd2-expressing oocytes; [3H]CQ […], pH 5.5, 15 μM unlabeled CQ (S5 Fig)
Experimental: as §3

[16] = target: 76I,369F-PfCRT^K1 (Plasmodium falciparum, UniProt Q9N623, A220S/K76I/M74I/N326S/N75E/Q271E/R371I/V369F); experiment: as above; format: cell-based
Experimental: as §3

[17] = tested on: 163R,356V-PfCRT^K1; experiment: as above; format: cell-based, Plasmodium falciparum; conditions: oocytes expressing 163R,356V-PfCRT^K1; pH 5.0, 50 μM unlabeled amantadine
Experimental: as §3

[18] = tested on: 76K-PfCRT^K1; experiment: as above; format: cell-based, Plasmodium falciparum; conditions: oocytes expressing 76K-PfCRT^K1; pH 5.0, 50 μM unlabeled amantadine
Experimental: as §3

76I,369F-PfCRT^K1, sequence (Q9N623 whole entry A220S/K76I/M74I/N326S/N75E/Q271E/R371I/V369F): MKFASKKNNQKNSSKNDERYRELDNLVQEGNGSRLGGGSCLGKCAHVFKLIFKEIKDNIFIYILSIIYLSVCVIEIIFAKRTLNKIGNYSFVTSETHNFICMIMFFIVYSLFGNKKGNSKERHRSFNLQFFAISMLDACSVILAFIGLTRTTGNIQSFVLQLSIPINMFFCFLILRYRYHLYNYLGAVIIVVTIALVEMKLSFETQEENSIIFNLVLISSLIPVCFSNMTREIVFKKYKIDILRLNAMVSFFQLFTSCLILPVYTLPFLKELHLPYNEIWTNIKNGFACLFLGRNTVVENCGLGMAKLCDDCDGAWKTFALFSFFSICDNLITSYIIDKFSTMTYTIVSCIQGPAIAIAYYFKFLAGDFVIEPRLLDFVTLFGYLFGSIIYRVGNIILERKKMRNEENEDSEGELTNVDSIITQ
76I-PfCRT^K1, sequence (Q9N623 whole entry A220S/K76I/M74I/N326S/N75E/Q271E/R371I): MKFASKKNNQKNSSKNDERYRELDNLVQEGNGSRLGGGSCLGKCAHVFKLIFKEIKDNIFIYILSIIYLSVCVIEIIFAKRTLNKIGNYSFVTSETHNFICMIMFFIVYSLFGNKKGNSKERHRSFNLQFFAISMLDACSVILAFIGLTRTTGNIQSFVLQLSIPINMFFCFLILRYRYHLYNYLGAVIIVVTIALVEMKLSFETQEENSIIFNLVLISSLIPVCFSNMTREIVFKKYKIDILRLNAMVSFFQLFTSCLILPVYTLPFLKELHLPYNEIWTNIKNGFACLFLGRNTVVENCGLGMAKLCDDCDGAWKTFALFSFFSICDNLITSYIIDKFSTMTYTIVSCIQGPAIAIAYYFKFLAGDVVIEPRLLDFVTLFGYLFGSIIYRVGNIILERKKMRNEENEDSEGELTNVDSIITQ

In the case of `CCN(CC)CCCC(C)Nc1ccnc2cc(Cl)ccc12` (stereo not shown) [CQ, chloroquine], the “Drug susceptibility (In vitro resistance index)” value [1] is given as 0.95, the “Drug susceptibility (In vitro resistance index)” value [2] is given as 11.78 ± 0.18 and the IC50 [3] is given as 0.087 ± 0.0021 µM. For the same compound, the IC50 [4] was 0.027 ± 0.0016 µM, the IC50 [5] was 0.149 ± 0.0046 µM and the IC50 [6] was 0.025 ± 0.0011 µM. For the same compound, the IC50 [7] was 0.151 ± 0.0048 µM, the “effect on rate of DV alkalinization” value ([8]; C4^Dd2 (CQ-resistant), CQ […], concanamycin A 100 nM) was “increased” and the “effect on rate of DV alkalinization” value ([9]; C2^GC03 (CQ-sensitive), CQ […], concanamycin A 100 nM) was “without effect”. For the same compound, the “effect on rate of DV alkalinization” value ([10]; C6^7G8 (CQ-resistant), CQ […], concanamycin A 100 nM) was “increased”, the “Drug susceptibility (In vitro resistance index)” value [11] was 1.13 ± 0.07 and the “Apparent Vmax” value ([12]; transport via 76I-PfCRT^K1 in oocytes, CQ pH 6.0, quinine and quinidine pH 5.0) was 29.3 pmol per oocyte/h and 29.3 ± 7.2^c,f (5) pmol per oocyte/h. For the same compound, the “rate of CQ uptake” value ([13]; pH 5.5, 15 μM unlabeled CQ (S5 Fig)) was 1.41 ± 0.02 pmol per oocyte/h, the “rate of CQ uptake” value ([13]; pH 6.0, 15 μM unlabeled CQ (Fig 2A)) was 0.98 ± 0.13 pmol per oocyte/h and the “rate of CQ uptake” value ([14]; oocytes expressing PfCRT^K1, [3H]CQ […], pH 6.0, 15 μM unlabeled CQ (Fig 2A)) was 6.75 ± 0.94 pmol per oocyte/h. For the same compound, the “Apparent Vmax” value ([14]; transport via PfCRT^K1 in oocytes, CQ pH 6.0, quinine and quinidine pH 5.0) was 72 ± 3 (9) pmol per oocyte/h, the Km ([14]; transport via PfCRT^K1 in oocytes, CQ pH 6.0, quinine and quinidine pH 5.0, 76K-PfCRT^K1 control subtracted, read-out: Apparent Km) was 282 ± 5 µM and the “rate of CQ uptake” value [15] was 24 ± 1.3 pmol per oocyte/h. For the same compound, the “Apparent Vmax” value ([16]; transport via 76I,369F-PfCRT^K1 in oocytes, CQ pH 6.0) was 13.8 pmol per oocyte/h and 13.8 ± 1.3^c (5) pmol per oocyte/h.
Work on `NC12CC3CC(CC(C3)C1)C2` [amantadine] yielded an IC50 [3] of 43 ± 2.9 µM, an IC50 [4] of 335 ± 9.5 µM and an IC50 [5] of 8.4 ± 0.06 µM. The IC50 [6] was 344 ± 8.9 µM, the IC50 [7] was 11 ± 0.1 µM and the “substrate of PfCRT in situ (rate of DV alkalinization)” value (“substrate of PfCRT in situ” for short) ([8]; C4^Dd2, PfCRT^Dd2, amantadine 10 μM) was “is a substrate”. The “substrate of PfCRT in situ” value ([9]; C2^GC03, wild-type PfCRT (PfCRT^3D7), amantadine 10 μM) was “not of wild-type PfCRT”, the “substrate of PfCRT in situ” value ([10]; C6^7G8, PfCRT^7G8, amantadine 10 μM) was “is a substrate” and the “[3H]amantadine accumulation relative to noninjected oocytes” value ([12]; oocytes expressing 76I-PfCRT^K1, pH 5.0, 50 μM unlabeled amantadine) was “marked increase”. The “rate of amantadine uptake” value ([13]; [3H]amantadine 0.146 μM, pH 5.0, 50 μM unlabeled amantadine) was 5.4 ± 0.9 nmol per oocyte/h, the “[3H]amantadine accumulation relative to background” value [17] was “failed to take up” and the “rate of amantadine uptake” value ([14]; PfCRT^K1-expressing oocytes, [3H]amantadine 0.146 μM, pH 5.0, 50 μM unlabeled amantadine) was 12 ± 2.8 nmol per oocyte/h. The “[3H]amantadine accumulation relative to noninjected oocytes” value ([14]; oocytes expressing PfCRT^K1, pH 5.0, 50 μM unlabeled amantadine) was “marked increase”, the “[3H]amantadine accumulation relative to background” value [18] was “failed to take up” and the amantadine transport activity ([16]; oocytes expressing 76I,369F-PfCRT^K1, pH 5.0, 50 μM unlabeled amantadine) was “very low (but statistically significant) level”.
